Data as given in ChEMBL document CHEMBL3808348, “Rational Design, Synthesis, and Biological Evaluation of 7-Azaindole Derivatives as Potent Focused Multi-Targeted Kinase Inhibitors” (J Med Chem, 2016).

Assays:
[1] = molecular target: Tyrosine-protein kinase ABL1 (Homo sapiens, UniProt P00519, E255K); assay: Inhibition of His-tagged full length human recombinant ABL E255K mutant expressed in baculovirus using Fluorescein-Poly GT as substrate
[2] = molecular target: Bcr/Abl fusion protein (Homo sapiens, UniProt P00519); assay type: cell-based, BaF3
Description: Inhibition of human wild type BCR-ABL expressed in mouse BAF3 cells assessed as inhibition of cell proliferation after 72 hrs by MTT assay

[3] = Antiproliferative activity against human PC3 cells after 72 hrs by MTT assay; assay type: functional, cell-based; settings: PC-3, 72 h
[4] = Cmax in Swiss mouse plasma at 2 mg/kg, iv by LC/MS/MS analysis; assay type: ADME, organism-based; design: dose 2 mg/kg, route intravenous
[5] = Tmax in Swiss mouse plasma at 20 mg/kg, po by LC/MS/MS analysis; assay type: ADME, organism-based
[6] = Oral bioavailability in Swiss mouse plasma at 20 mg/kg by LC/MS/MS analysis; assay type: ADME, organism-based
[7] = molecular target: hERG (KCNH2) (Homo sapiens, UniProt Q12809); assay: Inhibition of human ERG expressed in HEK293 cells at 30 uM by patch clamp assay; assay type: cell-based; settings: HEK293 cells expressing human ERG
[8] = test system: PBMC; assay: Hematotoxicity in human PHA/IL2-stimulated PBMC; assay type: cell-based
[9] = molecular target: Ephrin type-B receptor 2 (Homo sapiens) (UniProt P29323); assay: Inhibition of GST-tagged human recombinant EPHB2 (616 to 884 residues) expressed in baculovirus using Fluorescein-Poly GT as substrate at 100 nM
[10] = molecular target: Tyrosine-protein kinase Lck (Homo sapiens, UniProt P06239); assay: Inhibition of His-tagged full length human recombinant LCK expressed in baculovirus using Fluorescein-Poly GT as substrate at 100 nM
[11] = molecular target: Serine/threonine-protein kinase B-raf (Homo sapiens) (UniProt P15056); assay: Inhibition of full length GST-tagged human recombinant BRAF expressed in baculovirus using Fluorescein-MAP2K1 as substrate at 100 nM
[12] = molecular target: Vascular endothelial growth factor receptor 2 (Homo sapiens) (UniProt P35968); assay: Inhibition of full length His-tagged human recombinant VEGFR2 expressed in baculovirus using Fluorescein-Poly GT as substrate at 100 nM
[13] = molecular target: Protein kinase C delta type (Homo sapiens) (UniProt Q05655); settings: 100 nM
Description: Inhibition of full length human recombinant PKCdelta expressed in baculovirus using Fluorescein-PKC as substrate at 100 nM

[14] = molecular target: Protein kinase C gamma type (Homo sapiens) (UniProt P05129); settings: 100 nM
Description: Inhibition of full length human recombinant PKCgamma expressed in baculovirus using Fluorescein-PKC as substrate at 100 nM

[15] = molecular target: Serine/threonine-protein kinase D2 (Homo sapiens) (UniProt Q9BZL6); settings: 100 nM
Description: Inhibition of GST-tagged full length human recombinant PKD2 expressed in baculovirus using Fluorescein-CREBtide as substrate at 100 nM

[16] = molecular target: Tyrosine-protein kinase Tec (Homo sapiens) (UniProt P42680); settings: 100 nM
Description: Inhibition of His-tagged full length human recombinant TEC expressed in baculovirus using Fluorescein-Poly GT as substrate at 100 nM

[17] = molecular target: Tyrosine-protein kinase ABL2 (Homo sapiens) (UniProt P42684); settings: 100 nM
Description: Inhibition of His-tagged full length human recombinant ARG expressed in baculovirus using Fluorescein-Poly GT as substrate at 100 nM

[18] = molecular target: Ephrin type-A receptor 2 (Homo sapiens) (UniProt P29317); settings: 100 nM
Description: Inhibition of GST-tagged human recombinant EPHA2 (560 to 976 residues) expressed in baculovirus using Fluorescein-Poly GT as substrate at 100 nM

[19] = molecular target: Tyrosine-protein kinase FRK (Homo sapiens, UniProt P42685); settings: 100 nM
Description: Inhibition of GST-tagged full length human recombinant FRK expressed in baculovirus using Fluorescein-Poly GT as substrate at 100 nM

[20] = molecular target: Proto-oncogene tyrosine-protein kinase receptor Ret (Homo sapiens) (UniProt P07949); settings: 100 nM
Description: Inhibition of GST-tagged human recombinant RET (658 to 1114 residues) expressed in baculovirus using Fluorescein-Poly GT as substrate at 100 nM

[21] = molecular target: Vascular endothelial growth factor receptor 2 (Homo sapiens) (UniProt P35968); settings: 100 nM
Description: Inhibition of His-tagged human recombinant VEGFR2 (789 to 1356 residues) expressed in baculovirus using Fluorescein-Poly GT as substrate at 100 nM

[22] = molecular target: High affinity nerve growth factor receptor (Homo sapiens) (UniProt P04629); settings: 100 nM
Description: Inhibition of His-tagged human recombinant TRKA (441 to 796 residues) expressed in baculovirus using Fluorescein-Poly GT as substrate at 100 nM

[23] = molecular target: Receptor-type tyrosine-protein kinase FLT3 (Homo sapiens) (UniProt P36888); settings: 100 nM
Description: Inhibition of His-tagged human recombinant FLT3 (564 to 958 residues) expressed in baculovirus using Fluorescein-Poly GT as substrate at 100 nM

[24] = molecular target: Aurora kinase B (Homo sapiens) (UniProt Q96GD4); settings: 100 nM
Description: Inhibition of full length His-tagged human recombinant Aurora B expressed in baculovirus using Fluorescein-CREBtide as substrate at 100 nM

[25] = molecular target: Aurora kinase C (Homo sapiens) (UniProt Q9UQB9); settings: 100 nM
Description: Inhibition of full length His-tagged human recombinant Aurora C expressed in baculovirus using Fluorescein-CREBtide as substrate at 100 nM

[26] = molecular target: Serine/threonine-protein kinase Chk2 (Homo sapiens) (UniProt O96017); settings: 100 nM
Description: Inhibition of His-tagged human recombinant CHK2 expressed in baculovirus using Fluorescein-CREBtide as substrate at 100 nM

[27] = molecular target: CDK2/Cyclin A2 (Homo sapiens) (UniProt P24941+P20248); settings: 100 nM
Description: Inhibition of CDK2/cyclinA (unknown origin) at 100 nM

[28] = molecular target: CDK9/cyclin T1 (Homo sapiens) (UniProt O60563+P50750); settings: 100 nM
Description: Inhibition of CDK9/cyclinT1 (unknown origin) at 100 nM

[29] = molecular target: Mast/stem cell growth factor receptor Kit (Homo sapiens) (UniProt P10721); settings: 100 nM
Description: Inhibition of His-tagged human recombinant cKIT expressed in baculovirus using Fluorescein-Poly GT as substrate at 100 nM

[30] = molecular target: Hepatocyte growth factor receptor (Homo sapiens) (UniProt P08581); settings: 100 nM
Description: Inhibition of GST-tagged human recombinant cMET (956 to 1390 residues) expressed in baculovirus using Fluorescein-Poly GT as substrate at 100 nM

[31] = molecular target: Receptor tyrosine-protein kinase erbB-2 (Homo sapiens) (UniProt P04626); settings: 100 nM
Description: Inhibition of His-tagged human recombinant ERBB2 (676 to 1225 residues) expressed in baculovirus using Fluorescein-Poly GT as substrate at 100 nM

[32] = molecular target: Tyrosine-protein kinase Fes/Fps (Homo sapiens) (UniProt P07332); settings: 100 nM
Description: Inhibition of His-tagged full length human recombinant FES expressed in baculovirus using Fluorescein-Poly GT as substrate at 100 nM

[33] = molecular target: Glycogen synthase kinase-3 beta (Homo sapiens) (UniProt P49841); settings: 100 nM
Description: Inhibition of GSK3B (unknown origin) at 100 nM

[34] = molecular target: Inhibitor of nuclear factor kappa-B kinase subunit alpha (Homo sapiens) (UniProt O15111); settings: 100 nM
Description: Inhibition of His-tagged full length human recombinant IKKalpha expressed in baculovirus using Fluorescein-IKK as substrate at 100 nM

[35] = molecular target: Insulin receptor-related protein (Homo sapiens) (UniProt P14616); settings: 100 nM
Description: Inhibition of GST-tagged human recombinant INSRR (944 to 1297 residues) expressed in baculovirus using Fluorescein-Poly GT as substrate at 100 nM

[36] = molecular target: Tyrosine-protein kinase JAK2 (Homo sapiens) (UniProt O60674); settings: 100 nM
Description: Inhibition of GST-tagged human recombinant JAK2 (809 to 1153 +9 residues) expressed in baculovirus using GFP-ST AT1 as substrate at 100 nM

[37] = molecular target: Serine/threonine-protein kinase mTOR (Homo sapiens) (UniProt P42345); settings: 100 nM
Description: Inhibition of GST-tagged human recombinant mTOR (1360 to 2549 residues) expressed in baculovirus using GFP-4E -BP1 as substrate at 100 nM

[38] = molecular target: Platelet-derived growth factor receptor beta (Homo sapiens) (UniProt P09619); settings: 100 nM
Description: Inhibition of His-tagged human recombinant PDGFRbeta (558 to 1106 residues) expressed in baculovirus using Fluorescein-Poly GT as substrate at 100 nM

[39] = molecular target: 3-phosphoinositide-dependent protein kinase 1 (Homo sapiens) (UniProt O15530); settings: 100 nM
Description: Inhibition of PDK1 (unknown origin) at 100 nM

[40] = molecular target: Phosphorylase b kinase gamma catalytic chain, liver/testis isoform (Homo sapiens) (UniProt P15735); settings: 100 nM
Description: Inhibition of human full length recombinant N-terminal GST-tagged PHKG2 expressed in baculovirus at 100 nM

[41] = molecular target: cAMP-dependent protein kinase catalytic subunit alpha (Homo sapiens) (UniProt P17612); settings: 100 nM
Description: Inhibition of His-tagged human recombinant PKA C-alpha (1 to 351 residues) expressed in Escherichia coli using Fluorescein-Crosstide as substrate at 100 nM

[42] = molecular target: Testis-specific serine/threonine-protein kinase 2 (Homo sapiens) (UniProt Q96PF2); settings: 100 nM
Description: Inhibition of His-tagged full length human recombinant TSSK2 expressed in baculovirus at 100 nM

[43] = molecular target: Non-receptor tyrosine-protein kinase TYK2 (Homo sapiens) (UniProt P29597); settings: 100 nM
Description: Inhibition of GST-tagged human recombinant TYK2 (832 to 1187 residues) expressed in baculovirus using Fluorescein-Poly GT as substrate at 100 nM

[44] = molecular target: Ribosomal protein S6 kinase beta-1 (Homo sapiens) (UniProt P23443); settings: 100 nM
Description: Inhibition of GST-tagged human recombinant p70S6K (1 to 421 residues) expressed in baculovirus using Fluorescein-Crosstide as substrate at 100 nM

Vascular endothelial growth factor receptor 2 (Homo sapiens), sequence (P35968 whole entry): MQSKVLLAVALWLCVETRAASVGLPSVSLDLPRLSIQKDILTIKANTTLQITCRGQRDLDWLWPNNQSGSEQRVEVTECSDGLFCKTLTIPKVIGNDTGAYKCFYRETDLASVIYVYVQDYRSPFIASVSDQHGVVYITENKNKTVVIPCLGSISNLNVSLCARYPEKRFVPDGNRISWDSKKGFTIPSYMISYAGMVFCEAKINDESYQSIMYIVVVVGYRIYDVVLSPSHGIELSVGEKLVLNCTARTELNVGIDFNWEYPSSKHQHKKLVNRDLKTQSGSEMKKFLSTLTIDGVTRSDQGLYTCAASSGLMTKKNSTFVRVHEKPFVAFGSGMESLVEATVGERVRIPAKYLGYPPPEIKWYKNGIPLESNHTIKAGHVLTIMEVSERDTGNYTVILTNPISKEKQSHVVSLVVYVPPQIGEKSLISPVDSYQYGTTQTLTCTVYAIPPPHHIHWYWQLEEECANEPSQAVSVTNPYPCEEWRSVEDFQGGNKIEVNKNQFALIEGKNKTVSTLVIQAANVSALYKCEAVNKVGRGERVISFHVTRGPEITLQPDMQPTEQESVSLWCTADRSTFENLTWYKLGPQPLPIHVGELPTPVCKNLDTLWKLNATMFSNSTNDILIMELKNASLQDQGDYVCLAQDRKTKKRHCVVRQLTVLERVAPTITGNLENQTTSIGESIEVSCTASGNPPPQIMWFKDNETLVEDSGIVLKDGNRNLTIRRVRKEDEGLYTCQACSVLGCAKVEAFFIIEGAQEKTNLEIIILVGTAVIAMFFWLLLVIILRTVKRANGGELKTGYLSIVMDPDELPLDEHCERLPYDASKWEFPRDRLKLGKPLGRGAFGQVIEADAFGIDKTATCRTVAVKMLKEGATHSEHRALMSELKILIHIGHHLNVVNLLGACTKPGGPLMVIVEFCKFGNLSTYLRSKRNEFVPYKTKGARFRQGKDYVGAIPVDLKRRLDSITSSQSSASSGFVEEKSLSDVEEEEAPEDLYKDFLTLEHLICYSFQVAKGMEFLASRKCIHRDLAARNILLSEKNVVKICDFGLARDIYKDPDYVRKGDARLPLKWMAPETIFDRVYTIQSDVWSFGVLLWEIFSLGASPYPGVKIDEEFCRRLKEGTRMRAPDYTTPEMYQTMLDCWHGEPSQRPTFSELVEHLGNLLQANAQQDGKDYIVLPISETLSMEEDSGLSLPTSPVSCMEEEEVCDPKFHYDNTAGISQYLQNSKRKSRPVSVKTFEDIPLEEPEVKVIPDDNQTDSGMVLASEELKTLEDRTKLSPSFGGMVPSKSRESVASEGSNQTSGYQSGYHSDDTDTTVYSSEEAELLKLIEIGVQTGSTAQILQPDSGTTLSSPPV
3-phosphoinositide-dependent protein kinase 1 (Homo sapiens), sequence (O15530 whole entry, canonical isoform): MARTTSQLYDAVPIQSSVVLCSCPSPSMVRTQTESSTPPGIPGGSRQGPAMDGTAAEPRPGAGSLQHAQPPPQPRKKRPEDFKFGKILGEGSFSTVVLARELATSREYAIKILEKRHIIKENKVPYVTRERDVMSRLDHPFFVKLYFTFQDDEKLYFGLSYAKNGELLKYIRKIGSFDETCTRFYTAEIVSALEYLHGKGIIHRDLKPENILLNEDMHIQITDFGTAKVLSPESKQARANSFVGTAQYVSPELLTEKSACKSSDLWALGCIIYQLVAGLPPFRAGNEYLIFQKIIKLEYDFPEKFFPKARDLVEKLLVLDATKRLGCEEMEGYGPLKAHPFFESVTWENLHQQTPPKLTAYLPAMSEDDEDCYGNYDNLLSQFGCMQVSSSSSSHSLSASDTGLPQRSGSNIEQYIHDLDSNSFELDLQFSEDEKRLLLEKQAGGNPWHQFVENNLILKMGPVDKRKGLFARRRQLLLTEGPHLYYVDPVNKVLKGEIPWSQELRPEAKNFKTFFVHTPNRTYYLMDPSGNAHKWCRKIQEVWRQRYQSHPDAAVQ
Ephrin type-B receptor 2 (Homo sapiens), sequence (P29323 whole entry, the tested form may be a part): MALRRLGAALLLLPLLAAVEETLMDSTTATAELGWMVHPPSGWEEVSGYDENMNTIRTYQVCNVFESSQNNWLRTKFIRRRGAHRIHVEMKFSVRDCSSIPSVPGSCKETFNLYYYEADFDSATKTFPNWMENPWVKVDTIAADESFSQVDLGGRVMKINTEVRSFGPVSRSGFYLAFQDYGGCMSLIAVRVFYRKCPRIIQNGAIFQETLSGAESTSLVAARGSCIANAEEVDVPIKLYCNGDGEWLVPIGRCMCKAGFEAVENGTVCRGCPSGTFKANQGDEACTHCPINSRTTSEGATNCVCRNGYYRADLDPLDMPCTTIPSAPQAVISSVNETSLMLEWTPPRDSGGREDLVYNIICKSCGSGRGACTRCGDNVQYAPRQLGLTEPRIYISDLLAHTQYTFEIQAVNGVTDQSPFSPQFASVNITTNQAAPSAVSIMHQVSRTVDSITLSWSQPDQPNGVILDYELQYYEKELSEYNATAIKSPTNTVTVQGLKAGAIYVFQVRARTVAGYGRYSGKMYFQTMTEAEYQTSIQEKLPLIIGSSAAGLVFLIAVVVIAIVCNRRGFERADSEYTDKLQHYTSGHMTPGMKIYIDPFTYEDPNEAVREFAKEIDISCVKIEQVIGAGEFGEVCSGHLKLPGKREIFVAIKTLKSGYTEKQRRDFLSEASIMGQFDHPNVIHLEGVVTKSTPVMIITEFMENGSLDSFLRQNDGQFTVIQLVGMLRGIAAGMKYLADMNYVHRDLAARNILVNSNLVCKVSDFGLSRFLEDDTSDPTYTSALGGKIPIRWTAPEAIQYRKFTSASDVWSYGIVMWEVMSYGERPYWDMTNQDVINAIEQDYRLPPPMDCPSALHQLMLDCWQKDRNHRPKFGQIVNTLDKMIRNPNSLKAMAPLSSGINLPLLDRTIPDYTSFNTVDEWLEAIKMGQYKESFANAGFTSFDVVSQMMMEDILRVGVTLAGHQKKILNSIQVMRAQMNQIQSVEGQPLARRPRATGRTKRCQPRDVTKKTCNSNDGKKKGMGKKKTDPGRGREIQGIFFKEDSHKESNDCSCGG
Non-receptor tyrosine-protein kinase TYK2 (Homo sapiens), sequence (P29597 whole entry): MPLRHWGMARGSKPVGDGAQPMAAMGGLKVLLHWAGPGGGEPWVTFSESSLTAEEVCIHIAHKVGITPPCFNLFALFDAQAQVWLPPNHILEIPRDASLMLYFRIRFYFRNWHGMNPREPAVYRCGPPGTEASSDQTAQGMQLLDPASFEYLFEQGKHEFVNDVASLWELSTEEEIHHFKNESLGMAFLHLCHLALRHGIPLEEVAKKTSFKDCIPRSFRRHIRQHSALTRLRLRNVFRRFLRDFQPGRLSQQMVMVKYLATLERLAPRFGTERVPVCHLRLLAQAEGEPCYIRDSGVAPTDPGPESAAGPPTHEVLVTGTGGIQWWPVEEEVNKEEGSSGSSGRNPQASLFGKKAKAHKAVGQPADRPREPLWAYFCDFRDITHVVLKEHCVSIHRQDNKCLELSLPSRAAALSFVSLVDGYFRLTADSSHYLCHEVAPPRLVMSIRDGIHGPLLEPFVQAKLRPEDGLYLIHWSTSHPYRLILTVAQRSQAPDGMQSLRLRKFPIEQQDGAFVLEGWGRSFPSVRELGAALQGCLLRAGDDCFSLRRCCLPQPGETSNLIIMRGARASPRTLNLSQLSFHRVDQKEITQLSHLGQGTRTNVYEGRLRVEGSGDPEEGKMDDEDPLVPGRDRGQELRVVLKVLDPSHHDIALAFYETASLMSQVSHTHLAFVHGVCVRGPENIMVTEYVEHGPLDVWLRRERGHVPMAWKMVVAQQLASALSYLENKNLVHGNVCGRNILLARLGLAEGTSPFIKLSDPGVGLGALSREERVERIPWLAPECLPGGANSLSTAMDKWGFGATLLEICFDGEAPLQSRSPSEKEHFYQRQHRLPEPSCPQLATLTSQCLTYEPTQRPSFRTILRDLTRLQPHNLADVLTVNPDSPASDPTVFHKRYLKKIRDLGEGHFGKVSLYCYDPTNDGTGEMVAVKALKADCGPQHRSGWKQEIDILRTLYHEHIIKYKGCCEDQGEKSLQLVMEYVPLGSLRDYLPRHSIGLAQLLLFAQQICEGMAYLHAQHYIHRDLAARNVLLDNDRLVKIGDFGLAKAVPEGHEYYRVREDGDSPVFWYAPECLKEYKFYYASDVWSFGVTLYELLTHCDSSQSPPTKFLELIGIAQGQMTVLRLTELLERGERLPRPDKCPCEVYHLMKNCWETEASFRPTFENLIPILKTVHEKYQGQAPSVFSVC
Serine/threonine-protein kinase B-raf (Homo sapiens), sequence (P15056 whole entry): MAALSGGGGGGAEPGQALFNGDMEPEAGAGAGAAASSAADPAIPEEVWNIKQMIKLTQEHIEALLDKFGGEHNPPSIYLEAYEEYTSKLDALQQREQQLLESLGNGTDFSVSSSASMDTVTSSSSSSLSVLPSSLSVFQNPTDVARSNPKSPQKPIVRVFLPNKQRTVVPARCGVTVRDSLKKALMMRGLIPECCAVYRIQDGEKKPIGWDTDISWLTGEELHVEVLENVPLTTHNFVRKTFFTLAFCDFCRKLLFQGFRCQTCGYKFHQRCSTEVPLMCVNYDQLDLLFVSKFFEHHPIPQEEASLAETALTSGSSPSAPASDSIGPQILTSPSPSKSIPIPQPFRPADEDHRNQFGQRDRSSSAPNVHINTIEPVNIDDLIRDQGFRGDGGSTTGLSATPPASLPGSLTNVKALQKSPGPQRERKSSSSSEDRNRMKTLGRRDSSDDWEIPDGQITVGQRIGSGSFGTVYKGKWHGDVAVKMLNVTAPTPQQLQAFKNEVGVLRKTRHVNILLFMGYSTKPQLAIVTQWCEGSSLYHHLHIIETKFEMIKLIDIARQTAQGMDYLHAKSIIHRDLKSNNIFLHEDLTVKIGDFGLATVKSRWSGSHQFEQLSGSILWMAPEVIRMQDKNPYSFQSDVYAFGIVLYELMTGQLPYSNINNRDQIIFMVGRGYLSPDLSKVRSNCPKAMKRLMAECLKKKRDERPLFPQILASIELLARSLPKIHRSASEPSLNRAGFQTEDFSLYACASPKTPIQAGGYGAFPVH

COC(=O)c1cc2cc(NCc3cc(NC(=O)c4cc(-n5cnc(C)c5)cc(C(F)(F)F)c4)ccc3C)cnc2[nH]1
IC50 [1]: 73 nM
EC50 [2]: 0.04 nM
EC50 [3]: 152 nM
Cmax [4]: 853 ng/mL
Tmax [5]: 30 min
bioavailability [6]: 47%
inhibition at 30 µM [7]: 26%
EC50 [8]: 1200 nM
inhibition [9]: > 80%
inhibition [10]: > 80%
inhibition [11]: 54%
inhibition [12]: 46%
inhibition [13]: < 40%
inhibition [14]: < 40%
inhibition [15]: < 40%
inhibition [16]: < 40%
inhibition [17]: < 40%
inhibition [18]: < 40%
inhibition [19]: < 40%
inhibition [20]: < 40%
inhibition [21]: < 40%
inhibition [22]: < 40%
inhibition [23]: < 40%
inhibition [24]: < 40%
inhibition [25]: < 40%
inhibition [26]: < 40%
inhibition [27]: < 40%
inhibition [28]: < 40%
inhibition [29]: < 40%
inhibition [30]: < 40%
inhibition [31]: < 40%
inhibition [32]: < 40%
inhibition [33]: < 40%
inhibition [34]: < 40%
inhibition [35]: < 40%
inhibition [36]: < 40%
inhibition [37]: < 40%
inhibition [38]: < 40%
inhibition [39]: < 40%
inhibition [40]: < 40%
inhibition [41]: < 40%
inhibition [42]: < 40%
inhibition [43]: < 40%
inhibition [44]: < 40%
